Measurements published in patent publication US12053473B2, “Benzylamino substituted quinazolines and derivatives as SOS1 inhibitors” (priority 2016, dated 2024).
Where two headings read alike, the source gives them in different places.

Molecular target: SOS1 and KRAS G12D (protein-protein interaction) (Homo sapiens, UniProt Q07889)
Assay: KRAS::SOS1 AlphaScreen binding assay
Procedure: KRAS::SOS1 AlphaScreen Binding Assay
Low IC50 values are indicative of high potency of the SOS1 inhibitor compound in this assay setting:
10 nM (final assay concentration) KRAS G12D, 10 μM (final assay concentration) GDP and 5 nM (final assay concentration) GST-SOS1 are mixed in assay buffer prior to use and kept at room temperature.
AlphaLSA Glutathione Acceptor Beads and AlphaScreen Streptavidin Donor Beads are mixed in assay buffer at a concentration of 10 μg/mL (final assay concentration) each prior to use and kept at room temperature.
Compounds are diluted to a final start concentration of 100 μM and are tested in duplicate. […] For compound a start concentration of 100 μM, 150 nL of compound solution is transferred per well in 11 concentrations in duplicate with serial 1:5 dilutions.
The assay is run using a fully automated robotic system in a darkened room below 100 Lux. 10 μL of KRAS::SOS1 GDP mix is added into columns 1-24 to the 150 nL of compound solution (final dilution in the assay 1:100, final DMSO concentration 1%).
After a 30 minute incubation time 5 μL of bead mix is added into columns 1-23. Plates are kept at room temperature in a darkened incubator. After a further 60 minute incubation, the signal is measured using a PerkinElmer Envision HTS Multilabel Reader using the AlphaScreen specifications from PerkinElmer. Each plate contains the following controls: • diluted DMSO+KRAS::SOS1 GDP mix+bead mix • diluted DMSO+KRAS::SOS1 GDP mix Result Calculation:
IC50 values are calculated and analyzed using a 4 parametric logistic model.

[1] = assay buffer without EDTA (values not marked with an asterisk), read-out: IC50 (SOS1)
[2] = values marked with * in the table, read-out: IC50 (SOS1)
[3] = assay buffer with 100 μM EDTA (values marked with an asterisk), read-out: IC50 (SOS1)

Row | Compound | IC50 (read-out: IC50 (SOS1)) [nM] | other results
1 | COCC(=O)N1CC=C(c2cc3c(N[C@H](C)c4cccc(C(F)(F)CO)c4)nc(C)nc3cc2OC)CC1 [I-286] | 2 | –
2 | Cc1nc(N[C@H](C)c2cccc(C(F)(F)F)c2)c2cc(C3(O)CCN(C(=O)N(C)C)CC3)ccc2n1 [I-50] | – | IC50 [1]: 23 nM
3 | COc1cc2nc(C)nc(N[C@H](C)c3cccc(C4(O)COC4)c3)c2cc1C1=CCN(C(C)=O)CC1 [I-17] | – | IC50 [1]: 34 nM
4 | Cc1nc(N[C@H](C)c2cccc(C(F)(F)F)c2)c2cc(C3CCN(CC(=O)N(C)C)CC3)ccc2n1 [I-273] | 11 | –
5 | COCCN1CCN(C(=O)[C@H]2CC[C@H](c3cc4c(N[C@H](C)c5cc(N)cc(C(F)(F)F)c5F)nc(C)nc4cc3OC)CC2)CC1 [I-246] | 2 | –
6 | Cc1cccc([C@@H](C)Nc2nc(C)nc3ccc([C@H]4CC[S@@](=N)(=O)CC4)cc23)c1 [I-331] | – | IC50 [2]: 25 nM
7 | COCCN1CCN(C(=O)[C@H]2CC[C@@H](c3ccc4nc(C)nc(N[C@H](C)c5cc(N)cc(C(F)(F)F)c5)c4c3)CC2)CC1 [I-241] | 7 | –
8 | CC(=O)N1CC=C(c2ccc3nc(C)nc(N[C@H](C)c4cccc(C(F)(F)F)c4)c3c2)CC1 [I-221] | 11 | –
9 | Cc1nc(N[C@H](C)c2cccc(C(F)(F)F)c2)c2cc(-c3ccc(=O)n(CC(N)=O)c3)ccc2n1 [I-343] | – | IC50 [2]: 40 nM
10 | Cc1nc(N[C@H](C)c2cc(N)cc(C(F)(F)F)c2)c2cc([C@H]3CC[C@H](C(=O)N(C)C)CC3)c(C)cc2n1 [I-352] | 2 | –
11 | COc1cc2nc(C)nc(N[C@H](C)c3cccc(C(F)(F)F)c3)c2cc1[C@]1(O)CC[C@@H](O)CC1 [I-57] | – | IC50: 10 nM
12 | COc1cc2nc(C)nc(N[C@H](C)c3cccc(C)c3)c2cc1C1CCS(=O)(=O)CC1 [I-312] | 18 | –
13 | CCn1cc(-c2cc3c(N[C@H](C)c4cc(N)cc(C(F)(F)F)c4)nc(C)nc3cc2C)ccc1=O [I-347] | 6 | –
14 | COc1cc2nc(C)nc(N[C@H](C)c3cccc(C4(O)COC4)c3)c2cc1C1CCN(C(C)=O)CC1 [I-167] | – | IC50 [1]: 18 nM
15 | Cc1nc(N[C@H](C)c2cc(N)cc(C(F)(F)F)c2)c2cc([C@H]3CC[C@@H](C(=O)N(C)C[C@H](C)O)CC3)ccc2n1 [I-255] | 8 | –
16 | CNC(=O)CC(C)c1cc2c(N[C@H](C)c3cccc(C(F)(F)F)c3)nc(C)nc2cc1C (stereo partly shown) [I-377] | 10 | –
17 | Cc1nc(N[C@H](C)c2cc(N)cc(C(F)(F)F)c2)c2cc(C3CCS(=O)(=O)CC3)cc(C)c2n1 [I-316] | 6 | –
18 | COc1cc2nc(C)nc(N[C@H](C)c3cccc(C(F)(F)CO)c3)c2cc1C1CCOCC1 [I-164] | – | IC50 [1]: 3 nM
19 | Cc1nc(N[C@H](C)c2cc(N)cc(C(F)(F)F)c2)c2cc([C@H]3CC[C@H](C(=O)N(C)C[C@@H](C)O)CC3)ccc2n1 [I-256] | 3 | –
20 | Cc1cccc([C@@H](C)Nc2nc(C)nc3ccc(-c4ccn(CC(=O)N(C)C)c(=O)c4)cc23)c1 [I-340] | – | IC50 [2]: 1 nM
21 | Cc1nc(N[C@H](C)c2cccc(C(F)(F)F)c2)c2cc(-c3cnn(CC(=O)N(C)C)c3)ccc2n1 [I-85] | – | IC50 [2]: 41 nM
22 | Cc1nc(N[C@H](C)c2cc(N)cc(C(F)(F)F)c2)c2cc(-c3ccc(=O)n(C)c3)c(C)cc2n1 [I-107] | – | IC50 [2]: 4 nM

Row | Compound | IC50 (read-out: IC50 (SOS1)) [nM] | other results
23 | COc1cc2nc(C)nc(N[C@H](C)c3cccc(C(F)(F)F)c3F)c2cc1C1(O)CCN(C(C)=O)CC1 [I-45] | – | IC50 [1]: 2 nM
24 | COc1cc2nc(C)nc(N[C@H](C)c3cc(N)cc(C(F)(F)F)c3C)c2cc1[C@H]1CC[C@@H](C(=O)N(C)C)CC1 [I-249] | 38 | –
25 | COCCN1CCN(C(=O)[C@H]2CC[C@H](c3ccc4nc(C)nc(N[C@H](C)c5cc(N)cc(C(F)(F)F)c5)c4c3)CC2)CC1 [I-240] | 2 | –
26 | COc1cc2nc(C)nc(N[C@H](C)c3cccc(C4(O)COC4)c3)c2cc1O[C@H]1CCOC1 [I-16] | – | IC50 [1]: 38 nM
27 | COc1cc2nc(C)nc(N[C@H](C)c3cccc(C(F)(F)F)c3)c2cc1C1CCC(C(=O)N(C)CC(O)CO)CC1 (stereo partly shown) [I-227] | 27 | –
28 | COc1cc2nc(C)nc(N[C@H](C)c3cc(N)cc(C(F)(F)F)c3F)c2cc1C1CCN(C(C)=O)CC1 [I-278] | 2 | –
29 | Cc1cccc([C@@H](C)Nc2nc(C)nc3c(C)cc(C4CCN(CC(=O)O)CC4)cc23)c1 [I-292] | – | IC50 [1]: 28 nM
30 | COc1cc2nc(C)nc(N[C@H](C)c3cccc(C(F)(F)F)c3)c2cc1-c1ccc(C(=O)N2CCOCC2)cc1 [I-215] | 37 | –
31 | CC(=O)O[C@H]1CC[C@](O)(c2ccc3nc(C)nc(N[C@H](C)c4cccc(C(F)(F)F)c4)c3c2)CC1 [I-67] | – | IC50 [1]: 26 nM
32 | Cc1nc(N[C@H](C)c2cccc(C(F)(F)F)c2)c2cc(C3=CCC(C(=O)N(C)C)CC3)ccc2n1 (stereo partly shown) [I-222] | 19 | –
33 | COc1cc2nc(C)nc(N[C@H](C)c3cc(N)cc(C(F)(F)F)c3F)c2cc1-c1ccc(=O)n(C)c1 [I-110] | 8 | –
34 | COc1cc2nc(C)nc(N[C@H](C)c3cc(N)cc(C(F)(F)F)c3)c2cc1-c1ccc(=O)n(C)c1 [I-108] | 8 | –
35 | Cc1nc(N[C@H](C)c2cc(N)cc(C(F)(F)F)c2)c2cc(-c3ccc(=O)n(C)c3)ccc2n1 [I-104] | – | IC50 [2]: 6 nM
36 | Cc1nc(N[C@H](C)c2cc(N)cc(C(F)(F)F)c2)c2cc(-c3ccn(C)c(=O)c3)c(C)cc2n1 [I-348] | 7 | –
37 | COc1cc2nc(C)nc(N[C@H](C)c3cccc(C(F)(F)F)c3)c2cc1O[C@H]1CCN(C(C)=O)C1 [I-5] | – | IC50 [1]: 13 nM
38 | CC(=O)N1CC[C@H](Oc2cc3c(N[C@H](C)c4cc(N)cc(C(F)(F)F)c4)nc(C)nc3cc2C)C1 [I-9] | – | IC50 [1]: 3 nM
39 | COc1cc2nc(C)nc(N[C@H](C)c3cccc(C(F)(F)F)c3C)c2cc1[C@H]1CC[C@H](C(=O)N(C)C)CC1 [I-296] | 7 | –
40 | Cc1cccc([C@@H](C)Nc2nc(C)nc3ccc(-c4ccc(=O)n(C)c4)cc23)c1 [I-103] | – | IC50 [2]: 46 nM
41 | COc1cc2nc(C)nc(N[C@H](C)c3cccc(C(F)(F)F)c3F)c2cc1[C@]1(O)CC[C@@H](O)CC1 [I-58] | – | IC50: 6 nM
42 | Cc1cccc([C@@H](C)Nc2nc(C)nc3cc(C)c(-c4ccc(=O)n(C)c4)cc23)c1 [I-105] | – | IC50 [2]: 36 nM
43 | COc1cc2nc(C)nc(N[C@H](C)c3cc(N)cc(C(F)(F)F)c3)c2cc1-c1ccc(=O)n(C(C)C)c1 [I-351] | 13 | –
44 | COCC(=O)N1CCC(O)(c2cc3c(N[C@H](C)c4cccc(C(F)(F)F)c4F)nc(C)nc3cc2OC)CC1 [I-46] | – | IC50 [1]: 4 nM

Row | Compound | IC50 (read-out: IC50 (SOS1)) [nM] | other results
45 | COCC(=O)N1CCC(O)(c2cc3c(N[C@H](C)c4cccc(C(F)(F)F)c4)nc(C)nc3cc2OC)CC1 [I-47] | – | IC50 [1]: 5 nM
46 | CC(=O)N1CCC(O)(c2ccc3nc(C)nc(N[C@H](C)c4cccc(C(F)(F)F)c4)c3c2)CC1 [I-48] | – | IC50 [1]: 15 nM
47 | CC(=O)N1CCC2(CC1)CC(O)(c1ccc3nc(C)nc(N[C@H](C)c4cccc(C(F)(F)F)c4)c3c1)C2 [I-51] | – | IC50 [1]: 23 nM
48 | Cc1nc(N[C@H](C)c2cccc(C(F)(F)F)c2)c2cc([C@]3(O)CC[C@H](C(=O)N(C)C)CC3)ccc2n1 [I-78] | – | IC50 [1]: 27 nM
49 | Cc1nc(N[C@H](C)c2cccc(C(F)(F)F)c2)c2cc(C(C)CC(=O)NC3CC3)c(C)cc2n1 (stereo partly shown) [I-379] | 12 | –
50 | Cc1nc(N[C@H](C)c2cccc(C(F)(F)F)c2)c2cc(C3CCNCC3)ccc2n1 [I-182] | – | IC50 [3]: 22 nM
51 | CC(=O)N1CCC(c2ccc3nc(C)nc(N[C@H](C)c4cccc(C(F)(F)F)c4)c3c2)CC1 [I-280] | 17 | –
52 | COCCN(C)C(=O)[C@H]1CC[C@@H](c2cc3c(N[C@H](C)c4cc(N)cc(C(F)(F)F)c4)nc(C)nc3cc2OC)CC1 [I-358] | 49 | –
53 | COc1cc2nc(C)nc(N[C@H](C)c3cc(N)cc(C(F)(F)F)c3)c2cc1[C@H]1CC[C@@H](C(=O)N(C)C)CC1 [I-356] | 34 | –
54 | COc1cc2nc(C)nc(N[C@H](C)c3cccc(C(F)(F)F)c3F)c2cc1C1(O)CCC(C(=O)N(C)C)CC1 (stereo partly shown) [I-77] | – | IC50 [1]: 5 nM
55 | CC(=O)N1CCC(c2cc3c(N[C@H](C)c4cccc(C)c4)nc(C)nc3cc2C)CC1 [I-271] | 24 | –
56 | Cc1nc(N[C@H](C)c2cccc(C(F)(F)F)c2)c2cc(-c3cnn(C4CCNCC4)c3)ccc2n1 [I-168] | – | IC50 [3]: 48 nM
57 | CONC(=O)CC(C)c1cc2c(N[C@H](C)c3cccc(C(F)(F)F)c3)nc(C)nc2cc1C (stereo partly shown) [I-378] | 8 | –
58 | COCC(=O)N1CCC(O)(c2ccc3nc(C)nc(N[C@H](C)c4cccc(C(F)(F)F)c4)c3c2)CC1 [I-49] | – | IC50 [1]: 9 nM
59 | Cc1nc(N[C@H](C)c2cc(N)cc(C(F)(F)F)c2)c2cc([C@H]3CC[C@@H](C(=O)N4CCN(C)CC4)CC3)cc(C)c2n1 [I-362] | 8 | –
60 | COCCN(C)C(=O)[C@H]1CC[C@@H](c2ccc3nc(C)nc(N[C@H](C)c4cc(N)cc(C(F)(F)F)c4)c3c2)CC1 [I-237] | 9 | –
61 | COc1cc2nc(C)nc(N[C@H](C)c3cccc(C(F)(F)F)c3)c2cc1[C@]1(O)CC[C@@H](C(=O)N(C)CCO)CC1 [I-75] | – | IC50: 7 nM
62 | COc1cc(-c2cc3c(N[C@H](C)c4cccc(C(F)(F)F)c4)nc(C)nc3cc2OC)ccc1C(=O)N(C)C [I-217] | 43 | –
63 | Cc1cccc([C@@H](C)Nc2nc(C)nc3ccc(-c4cc5n(n4)CCC(=O)N5)cc23)c1 [I-87] | – | IC50 [2]: 18 nM
64 | CC(=O)N1CCC(c2cc(C)c3nc(C)nc(N[C@H](C)c4cccc(C)c4)c3c2)CC1 [I-269] | 24 | –
